Measurements as given in patent US4108991A, “N-aminosulfenyl derivatives of aldicarb” (priority 1976, dated 1978).

How the values were obtained:
[1] = tested on: Mexican bean beetle; assay: Initial contact activity, leaf dip, Mexican bean beetle; type: in vivo, Epilachna varivestis Muls.; conditions: Epilachna varivestis, foliar, 48 h, initial, BB, 48 hours, read-out: Percent Kill
Procedure: (§1) Initial Contact Activity: One half gram of test compound was dissolved in 40 ml of acetone and this solution was dispersed in 360 ml of water containing one drop of isooctylphenyl polyethoxyethanol. Aliquots of this solution, which corresponds to 1250 ppm of active ingredient, were diluted with an appropriate amount of water to provide solutions containing various concentrations of active ingredient. Test organisms and techniques were as follows: The activity against the Mexican bean beetle (Epilachna varivestis Muls.) and the southern armyworm (Spodoptera eridania [Cram.]) was evaluated by dipping the leaves of pinto bean plants into the test solution and infesting the leaves with the appropriate immature-form insects when the foiliage had dried; the activity against the pea aphid (Acyrthosiphon pisum [Harris]) was evaluated on broad bean plants whose leaves were dipped before infestation with adult aphids; the activity against two-sotted spider mites (Tetranychus urticae Koch) was evaluated on pinto bean plants whose leaves were dipped after infestation with adult mites; the activity against the milkweed bug (Oncopeltus fasciatus [Dallas]), and the plum curculio (Conotrachelus nenuphar [Herbst]) was evaluated by spraying the test solutions into glass dishes or jars containing the adult insects; the activity against the confused flour beetle (Tribolium confusum duVal) was evaluated by introducing the insects into glass dishes which had been previously sprayed with test solution and allowed to dry. All organisms in the test were maintained in a holding room at 80° F and 50% relative humidity for an exposure period of 48 hours. At the end of this time, the dead and living insects or mites were counted, and the percent kill was calculated.

[2] = tested on: Pea aphid; assay: Systemic activity, soil-watering, pea aphid; type: in vivo, Acyrthosiphon pisum [Harris]; conditions: Acyrthosiphon pisum, 48 h, systemic, PA, read-out: Percent Kill
Procedure: as §1
(§2) Systemic Activity: Systemic activity was measured using a soil-watering technique. Test organisms were Mexican bean beetle, southern armyworm, pea aphid, and mites on plants as described above in this Example. With appropriate precautions to avoid contact of the solution with the test plant surfaces, 25 ml of a test solution, prepared as above to contain the desired amount of active ingredient, were poured evenly over the surface of the soil in which the plant was growing. The treated plants were maintained under normal growing conditions for three days to permit translocation of the toxicant, after which the leaves were infested. Two days after infestation, counts of living and dead insects were made.

[3] = tested on: Granary Weevil; assay: Residual (7-day) contact activity, granary weevil; type: in vivo; conditions: Sitophilus granarius, 168 h, residual 7-day, GW, read-out: Percent Kill
[4] = tested on: Pea aphid; assay: Residual (7-day) contact activity, pea aphid; type: in vivo, Acyrthosiphon pisum [Harris]; conditions: Acyrthosiphon pisum, 168 h, residual 7-day, PA, read-out: Percent Kill
Procedure: as §1
(§3) Residual Contact Activity: The residual contact activity of the compounds was determined on the same organisms using the techniques described above, except that in each case the treated surface was allowed to dry and was exposed to normal light and air for seven days before introduction of the mites or insects.

[5] = tested on: Milkweed bug; assay: Initial contact activity, spray, milkweed bug; type: in vivo, Oncopeltus fasciatus [Dallas]; conditions: Oncopeltus fasciatus, 48 h, initial, MWB, 48 hours, read-out: Percent Kill
Procedure: as §1

[6] = tested on: Granary Weevil; assay: Initial contact activity, granary weevil; type: in vivo; conditions: Sitophilus granarius, 48 h, initial, GW, 48 hours, read-out: Percent Kill
[7] = tested on: Plum curculio; assay: Initial contact activity, spray, plum curculio; type: in vivo, Conotrachelus nenuphar [Herbst]; conditions: Conotrachelus nenuphar, initial, PC, 48 hours, read-out: Percent Kill
Procedure: as §1

[8] = tested on: Southern armyworm; assay: Systemic activity, soil-watering, southern armyworm; type: in vivo, Spodoptera eridania [Cram.]; conditions: Spodoptera eridania, 48 h, systemic, AW, read-out: Percent Kill
Procedure: as §1, §2

[9] = tested on: Mexican bean beetle; assay: Systemic activity, soil-watering, Mexican bean beetle; type: in vivo, Epilachna varivestis Muls.; conditions: Epilachna varivestis, 48 h, systemic, BB, read-out: Percent Kill
Procedure: as §1, §2

[10] = tested on: Plum curculio; assay: Residual (7-day) contact activity, plum curculio; type: in vivo, Conotrachelus nenuphar [Herbst]; conditions: Conotrachelus nenuphar, 168 h, residual 7-day, PC, read-out: Percent Kill
Procedure: as §1, §3

[11] = tested on: Two-spotted spider mite; assay: Systemic activity, soil-watering, two-spotted spider mite; type: in vivo, Tetranychus urticae Koch; conditions: Tetranychus urticae, 48 h, systemic, SM, read-out: Percent Kill
Procedure: as §1, §2

[12] = tested on: Mexican bean beetle; assay: Residual (7-day) contact activity, Mexican bean beetle; type: in vivo, Epilachna varivestis Muls.; conditions: Epilachna varivestis, 168 h, residual 7-day, BB, read-out: Percent Kill
Procedure: as §1, §3

[13] = tested on: Confused flour beetle; assay: Initial contact activity, sprayed dishes, confused flour beetle; type: in vivo, Tribolium confusum duVal; conditions: Tribolium confusum, initial, FB, 48 hours, read-out: Percent Kill
Procedure: as §1

[14] = tested on: Confused flour beetle; assay: Residual (7-day) contact activity, confused flour beetle; type: in vivo, Tribolium confusum duVal; conditions: Tribolium confusum, 168 h, residual 7-day, FB, read-out: Percent Kill
Procedure: as §1, §3

[15] = tested on: Pea aphid; assay: Initial contact activity, leaf dip, pea aphid; type: in vivo, Acyrthosiphon pisum [Harris]; conditions: Acyrthosiphon pisum, foliar, 48 h, initial, PA, 48 hours, read-out: Percent Kill
Procedure: as §1

[16] = tested on: Two-spotted spider mite; assay: Initial contact activity, leaf dip, two-spotted spider mite; type: in vivo, Tetranychus urticae Koch; conditions: Tetranychus urticae, foliar, 48 h, initial, SM, 48 hours, read-out: Percent Kill
Procedure: as §1

SMILES: CSC(C)(C)C=NOC(=O)N(C)SN1CCOCC1 [Example II, 2-methyl-2-(methylthio)propanol O-[(N-methyl-N-morpholinosulfenyl)carbamoyl]oxime]
- mortality at 156 ppm ([1]; 156 PPM): 100%
- mortality at 312 ppm ([1]; 312 PPM): 100%
- mortality at 625 ppm ([1]; 625 PPM): 100%
- mortality at 1250 ppm ([1]; 1250 PPM): 100%
- mortality at 10 ppm ([2]; 10 PPM): 40%
- mortality at 39 ppm ([2]; 39 PPM): 100%
- mortality at 312 ppm ([3]; 312 PPM): 20%
- mortality at 1250 ppm ([3]; 1250 PPM): 100%
- mortality at 156 ppm ([4]; 156 PPM): 0%
- mortality at 312 ppm ([4]; 312 PPM): 0%
- mortality at 1250 ppm ([4]; 1250 PPM): 93%
- mortality at 10 ppm ([5]; 10 PPM): 25%
- mortality at 39 ppm ([5]; 39 PPM): 100%
- mortality at 156 ppm ([5]; 156 PPM): 100%
- mortality at 1250 ppm ([5]; 1250 PPM): 100%
- mortality at 156 ppm ([6]; 156 PPM): 100%
- mortality at 312 ppm ([6]; 312 PPM): 100%
- mortality at 1250 ppm ([6]; 1250 PPM): 100%
- mortality at 10 ppm ([7]; 10 PPM): 0%
- mortality at 39 ppm ([7]; 39 PPM): 5%
- mortality at 156 ppm ([7]; 156 PPM): 47%
- mortality at 1250 ppm ([7]; 1250 PPM): 100%
- mortality at 312 ppm ([8]; 312 PPM): 100%
- mortality at 625 ppm ([8]; 625 PPM): 100%
- mortality at 39 ppm ([9]; 39 PPM): 58%
- mortality at 156 ppm ([9]; 156 PPM): 100%
- mortality at 156 ppm ([10]; 156 PPM): 10%
- mortality at 312 ppm ([10]; 312 PPM): 5%
- mortality at 1250 ppm ([10]; 1250 PPM): 37%
- mortality at 5 ppm ([11]; 5 PPM): 1.4%
- mortality at 10 ppm ([11]; 10 PPM): 38%
- mortality at 39 ppm ([11]; 39 PPM): 69%
- mortality at 312 ppm ([12]; 312 PPM): 88%
- mortality at 1250 ppm ([12]; 1250 PPM): 100%
- mortality at 156 ppm ([13]; 156 PPM): 5%
- mortality at 312 ppm ([13]; 312 PPM): 51%
- mortality at 1250 ppm ([13]; 1250 PPM): 80%
- mortality at 312 ppm ([14]; 312 PPM): 0%
- mortality at 1250 ppm ([14]; 1250 PPM): 2.5%
- mortality at 10 ppm ([15]; 10 PPM): 78%
- mortality at 39 ppm ([15]; 39 PPM): 100%
- mortality at 156 ppm ([15]; 156 PPM): 100%
- mortality at 1250 ppm ([15]; 1250 PPM): 100%
- mortality at 10 ppm ([16]; 10 PPM): 100%
- mortality at 39 ppm ([16]; 39 PPM): 100%
- mortality at 156 ppm ([16]; 156 PPM): 100%
- mortality at 1250 ppm ([16]; 1250 PPM): 100%
